Experimental data published in patent US12290654B2, “Using alternating electric fields to increase permeability of the blood brain barrier” (Novocure GmbH, priority 2018, dated 2025).

What was measured:
[1] = tested on: blood brain barrier (rat brain); assay: Evans Blue accumulation in rat brain after alternating electric fields; type: in vivo, rats
Text: A set of in vivo experiments on rats was also run to quantify the increase in vessel permeability caused by exposure to the alternating electric fields. These experiments used Evans Blue (EB) dye, which is an azo dye that has a very high affinity for serum albumin (molecule size ˜69 kDa). Because of its large molecule size, serum albumin will ordinarily not be able to get past the BBB.
This was accomplished by shaving each rat's head, positioning a first pair of capacitively coupled electrodes on the top and bottom of the rat's head, and positioning a second pair of capacitively coupled electrodes on the left and right sides of the rat's head. A 100 kHz AC voltage was then applied between the top and bottom electrodes for 1 second, followed by a 100 kHz AC voltage applied between the right and left electrodes for 1 second, in a repeating sequence.
Under the conditions indicated in Table 1 and for the times indicated on Table 1, EB was injected intravenously into the tail vein under anesthesia (Once injected, EB immediately binds to Albumin), and the EB was allowed to circulate for 2 hours in all cases. The following steps were then performed: (a) intracardiac perfusion with saline; (b) brains are sliced in four pieces with a brain slicer; (c) pieces were photographed to localize staining and weighted; (d) EB extraction after tissue homogenization with TCA 50% (1:3) and centrifuge and (e) EB quantification at 610 nm. Results are given as μg EB per g tissue.
During the experiment, two animals from group 2 and one animal from group 4 were excluded (disrupted treatment, failure to inject EB into the tail vein). There were no differences between the animals treated with alternating electric fields (groups 1 and 2) and therefore these animals were grouped together. Similarly, there were no differences between sham heat and control animals (groups 3 and 4) and therefore these animals were grouped together.
EB accumulation in these four specific sections was then measured. In addition, a computer simulation was performed to determine the field strength in each of these four sections. […]

[2] = tested on: blood brain barrier (rat brain); assay: DCE-MRI contrast agent accumulation in rat brain; type: in vivo, rats
Procedure: Yet another set of in vivo experiments was performed using Dynamic Contrast Enhanced MRI (DCE-MRI) with intravenous injection of Gadolinium contrast agent (Gd-DTPA, Magnetol, MW 547). In these experiments, test rats were treated with 100 kHz alternating electric fields for 72 h, and control rats were not treated with alternating electric fields for the same period of time. After this 72 h period, the alternating electric field was turned off, the rats were anesthetized, and a series of 60 T1w MRI scans (each of the scans having a duration of 28 seconds) was acquired. The gadolinium contrast agent was injected into the rat's tail vein during the 7th of these 60 scans.
The image analysis for each rat included (1) determining a baseline for each voxel by calculating the mean of the first six T1w MRI scans for each voxel (i.e., the scans prior to the injection of the gadolinium); (2) computing voxel by voxel, the percent signal change (i.e., gadolinium accumulation) over time relative to the baseline; (3) segmenting the brain into anterior, middle, and posterior segments; (4) generating for each of the three segments the mean percent signal change with respect to the baseline over all the voxels in the respective segment and then (5) averaging 4 consecutive time points (i.e. 4 scans) together. Finally, the data from all of the rats within any given group were averaged together. […]

Row | average EB accumulation in the rat brain, averaged over all four sections 1-4 ([1]; 100 kHz fields 72 hours vs sham heat/control, p<0.05) | EB accumulation, sections 1, 2 (frontal cerebrum) ([1]; 100 kHz fields 72 h vs sham heat/control, EB i.v., circulated 2 hours, sections where field strength was highest) | Compound | EB accumulation, more posterior sections (3, 4) ([1]; 100 kHz fields 72 h vs sham heat/control, EB i.v., circulated 2 hours, sections where field strength was lower) | contrast agent accumulation in the brain tissue (DCE-MRI percent signal change) ([2]; 100 kHz fields 72 h (n=6) vs control rats (n=3), most pronounced in posterior brain) | contrast agent accumulation in the brain tissue (DCE-MRI percent signal change) ([2]; 100 kHz fields 72 hours followed by 96 hours without fields (n=7) vs control+96h (n=3))
1 | higher accumulation | statistically significant increase | Cc1cc(-c2ccc(/N=N/c3ccc4c(S(=O)(=O)O)cc(S(=O)(=O)O)c(N)c4c3O)c(C)c2)ccc1/N=N/c1ccc2c(S(=O)(=O)O)cc(S(=O)(=O)O)c(N)c2c1O [EB, Evans Blue] | smaller increase (that was not statistically significant) |  | 
2 |  |  | O=C([O-])CN(CCN(CC(=O)[O-])CC(=O)O)CCN(CC(=O)[O-])CC(=O)O.[Gd+3] [contrast agent, Gd-DTPA] |  | significantly higher | not significantly different
